Data set [1] is described as follows: Solubility (characterisation data).
A further data set relates to DNA end joining (NHEJ). Kind of data set: NHEJ assay, cell-free extracts prepared from rat testes. In kind it is biochemical. The following applies: cell-free repair system from rat testes; compatible, noncompatible, blunt ends. The protocol: ATP end-labeled oligomeric DNA substrate (75 bp) containing 4 nt overhangs at 5′ ends (about 2 h at 25° C.). In the case of vehicle control, DMSO is used. […] The reaction products are purified and resolved on about 8% denaturing polyacrylamide gel.
FIG. 2 depicts the NHEJ assay and study of joining efficiency. A. Schematic representation of NHEJ assay and substrates containing DSBs. B. Comparison of the effect of potential Ligase IV inhibitors on DNA end joining. The joined products are indicated. “M” represents [g-32 ? P] ATP end-labeled 50 by ladder. C. Quantification of the joining efficiency. […] “PSLU” is “photostimulated luminescence unit”. […] Products are resolved on 1% agarose gel and visualized. Ethidium bromide is used as a positive control for the intercalation assay.
The reaction products are resolved on 8% denaturing PAGE. “M” represents [γ-^32P]ATP end-labeled 50 by ladder. […] “M” is a 2 log DNA ladder.
A. Western blotting showing presence of Ligase IV/XRCC4 in eluted fractions. W is wash, 1 and 2 are different fractions. […] Concentrations of inhibitors used are indicated. For other details, FIG. 4 legend can be referred. C. […] Radiolabeled oligomeric DNA substrates containing 5′ compatible termini are then added to the reaction along with increasing concentrations of purified Ligase IV/XRCC4 complex (30, 60 and 120 fmol) and products are resolved on a PAGE. F. Bar diagram representing quantification of the complementation experiment performed on 5′-5′ and 5′-3′ noncomplementary ends. In all panels quantification of EJ based on 3 independent experiments is represented as mean±SEM.

The term melting point denotes the temperature, or range, at which the solid turns liquid.

As for `Oc1nc(S)nc(/N=C/c2ccc(Cl)cc2)c1/N=C/c1ccc(Cl)cc1` [Compound 6, (5E,6E)-5,6-bis(4-chlorobenzylideneamino)-2-mercaptopyrimidin-4-ol], the melting point fell in the range of 260 to 262 °C. For the same compound, in data set [1], the “Solubility in dimethyl formamide (DMF), dimethyl sulfoxide (DMSO)” value (“Solubility in dimethyl formamide (DMF)” for short) is listed as “soluble”; the “Solubility in chloroform (CHCl3)” value is “Insoluble”; the Solubility in ethanol entry is reported as “Partially soluble”.
The matching figures for `COc1cc(/C=N/c2c(N)nc(S)nc2O)cc(OC)c1OC` [Compound 5, (E)-5-(3,4,5-trimethoxybenzylideneamino)-6-amino-2-mercaptopyrimidin-4-ol]: 315 °C, “soluble”, “Insoluble” and “Partially soluble”.
The matching figures for `Cc1ccc(/C=N/c2nc(S)nc(O)c2/N=C/c2ccc(C)cc2)cc1` [Compound 7, (5E,6E)-5,6-bis(4-methylbenzylideneamino)-2-mercaptopyrimidin-4-ol]: 181 to 183 °C, “soluble”, “Insoluble” and “Partially soluble”.
In the same order, the values of `Oc1nc(S)nc2nc3[nH]c4ccccc4c3nc12` [Compound 8, 2-mercapto-10H-indolo[3,2-g]pteridin-4-ol] are more than 320 °C, “soluble”, “Insoluble” and “Partially soluble”.
As for `COc1ccc(/C=N/c2c(N)nc(S)nc2O)cc1` [Compound 14, (E)-5-(4-methoxybenzylideneamino)-6-amino-2-mercaptopyrimidin-4-ol], in data set [1], the “Solubility in dimethyl formamide (DMF)” value is reported as “soluble”; the “Solubility in chloroform (CHCl3)” value is given as “Insoluble”; the Solubility in ethanol result is given as “Partially soluble”.
In the case of `Nc1nc(S)nc(O)c1/N=C/c1ccc(Cl)cc1` [Compound 2, (E)-5-(4-chlorobenzylideneamino)-6-amino-2-mercaptopyrimidin-4-ol], the melting point is more than 300 °C. Further, in data set [1], the “Solubility in dimethyl formamide (DMF)” value was “soluble”; the “Solubility in chloroform (CHCl3)” value is reported as “Insoluble”; the Solubility in ethanol entry was “Partially soluble”.
`COc1ccc(/C=N/c2nc(S)nc(O)c2/N=C/c2ccc(OC)cc2)cc1` [Compound 10, (5E,6E)-5,6-bis(4-methoxybenzylideneamino)-2-mercaptopyrimidin-4-ol]: in data set [1], the “Solubility in dimethyl formamide (DMF)” value is listed as “soluble”; the “Solubility in chloroform (CHCl3)” value was “Insoluble”; the Solubility in ethanol result is “Partially soluble”.
In the same order, the values of `Cc1ccc(/C=N/c2c(N)nc(S)nc2O)cc1` [Compound 13, (E)-5-(4-methylbenzylideneamino)-6-amino-2-mercaptopyrimidin-4-ol] are “soluble”, “Insoluble” and “Partially soluble”.
Regarding `Nc1nc(S)nc(O)c1/N=C/c1ccc(O)cc1` [Compound 4, (E)-5-(4-hydroxybenzylideneamino)-6-amino-2-mercaptopyrimidin-4-ol], the melting point was more than 320 °C. In data set [1], the “Solubility in dimethyl formamide (DMF)” value is on record as “soluble”; the “Solubility in chloroform (CHCl3)” value is reported as “Insoluble”; the Solubility in ethanol entry was “Partially soluble”.
`Nc1nc(S)nc(O)c1/N=C/c1ccc([N+](=O)[O-])cc1` [Compound 3, (E)-5-(4-nitrobenzylideneamino)-6-amino-2-mercaptopyrimidin-4-ol] gave a melting point of more than 320 °C. Moreover, in data set [1], the “Solubility in dimethyl formamide (DMF)” value is “soluble”; the “Solubility in chloroform (CHCl3)” value is recorded as “Insoluble”; the Solubility in ethanol entry was “Partially soluble”.
As for `COc1cc(/C=N/c2nc(S)nc(O)c2/N=C/c2cc(OC)c(OC)c(OC)c2)cc(OC)c1OC` [Compound 11, (5E,6E)-5,6-bis(3,4,5-trimethoxybenzylideneamino)-2-mercaptopyrimidin-4-ol], in data set [1], the “Solubility in dimethyl formamide (DMF)” value is on record as “soluble”; the “Solubility in chloroform (CHCl3)” value is given as “Insoluble”; the Solubility in ethanol entry is given as “Partially soluble”.
The matching figures for `Oc1ccc(/C=N/c2nc(S)nc(O)c2/N=C/c2ccc(O)cc2)cc1` [Compound 12, (5E,6E)-5,6-bis(4-hydroxybenzylideneamino)-2-mercaptopyrimidin-4-ol]: “soluble”, “Insoluble” and “Partially soluble”.
As for `[Na+].[O-]c1nc(S)nc(/N=C/c2ccccc2)c1/N=C/c1ccccc1` [Compound 15, Sodium 5,6-bis((E)-benzylideneamino)-2-mercaptopyrimidin-4-olate], the “Inhibition of end joining (EJ) of various types of DSBs” value in the data set with DNA end joining (NHEJ) was “inhibits end joining (EJ) irrespective of type and configurations of DSB”.
For `O=[N+]([O-])c1ccc(/C=N/c2nc(S)nc(O)c2/N=C/c2ccc([N+](=O)[O-])cc2)cc1` [Compound 9, (5E,6E)-5,6-bis(4-nitrobenzylideneamino)-2-mercaptopyrimidin-4-ol], in data set [1], the “Solubility in dimethyl formamide (DMF)” value is reported as “soluble”; the “Solubility in chloroform (CHCl3)” value is “Insoluble”; the Solubility in ethanol entry was “Partially soluble”.

Values taken from patent publication US9969696B2, “Compounds as inhibitor of DNA double-strand break repair, methods and applications thereof” (INDIAN INSTITUTE OF SCIENCE, priority 2012, dated 2018).
